Measurements reported in ChEMBL document CHEMBL1125766, “Synthesis and antiviral activity of certain guanosine analogues in the thiazolo[4,5-d]pyrimidine ring system” (1991).
“And” between values parts separate entries of the source, which are not always exact repeats. Equal entries are not always repeated.

Columns and labels:
Format in all cases: functional
Mus musculus [1] = assay: Compound was tested for mean survival time through 21 days after administration of 200 mg/kg, 24 and 18 hr prior to virus inoculation ( forest virus) in mice
Mus musculus [2] = assay: Compound was tested for its activity against forest virus infection in mice, activity was determined by measuring the number of survived mice after 200 mg/kg administration.
Mus musculus [3] = assay: Compound was tested for its activity against forest virus infection in mice, activity was determined by measuring the number of survived mice after 100 mg/kg administration.
Mus musculus [4] = assay: Compound was tested for mean survival time through 21 days after administration of 100 mg/kg, 24 and 18 hr prior to virus inoculation ( forest virus) in mice
Mus musculus [5] = assay: Compound was tested for mean survival time through 21 days after administration of 25 mg/kg, 24 and 18 hr prior to virus inoculation ( forest virus) in mice
Mus musculus [6] = assay: Compound was tested for its activity against forest virus infection in mice, activity was determined by measuring the number of survived mice after 25 mg/kg administration
Mus musculus [7] = assay: Compound was tested for its activity against forest virus infection in mice, activity was determined by measuring the number of survived mice after 50 mg/kg administration
Mus musculus [8] = assay: Compound was tested for its activity against forest virus infection in mice, activity was determined by measuring the number of survived mice after 100 mg/kg administration
Mus musculus [9] = assay: Compound was tested for mean survival time through 21 days after intraperitoneal administration of 150 mg/kg, 24 hr prior to virus inoculation ( forest virus) in mice
Mus musculus [10] = assay: Compound was tested for mean survival time through 21 days after intravenous administration of 150 mg/kg, 24 hr prior to virus inoculation ( forest virus) in mice
Mus musculus [11] = assay: Compound was tested for mean survival time through 21 days after oral administration of 150 mg/kg, 24 hr prior to virus inoculation ( forest virus) in mice
Mus musculus [12] = assay: Compound was tested for mean survival time through 21 days after subcutaneous administration of 150 mg/kg, 24 hr prior to virus inoculation ( forest virus) in mice
Mus musculus [13] = assay: Compound was tested for its activity against forest virus infection in mice, activity was determined by measuring the number of survived mice after 150 mg/kg oral administration.
Mus musculus [14] = assay: Compound was tested for its activity against forest virus infection in mice, activity was determined by measuring the number of survived mice after 150 mg/kg subcutaneous administration.
Mus musculus [15] = assay: Compound was tested for its activity against intraperitoneal administration.
Mus musculus [16] = assay: Compound was tested for its activity against forest virus infection in mice, activity was determined by measuring the number of survived mice after 150 mg/kg intravenous administration.

Row | Structure (SMILES) | Mean survival time (Mus musculus [1]) [days] | Survivors (Mus musculus [2]) [%] | Survivors (Mus musculus [3]) [%] | Mean survival time (Mus musculus [4]) [days] | Mean survival time (Mus musculus [5]) | Survivors (Mus musculus [6]) [%] | Survivors (Mus musculus [7]) [%] | Survivors (Mus musculus [8]) [%] | Mean survival time (Mus musculus [9]) [days] | Mean survival time (Mus musculus [10]) [days] | Mean survival time (Mus musculus [11]) [days] | Mean survival time (Mus musculus [12]) [days] | Survivors (Mus musculus [13]) [%] | Survivors (Mus musculus [14]) [%] | Survivors (Mus musculus [15]) [%] | Survivors (Mus musculus [16]) [%] | Mean survival time (Mus musculus [4]; 100 mg/kg)
1 | Nc1nc(O)c2sc(=O)n(C(CO)OC(CO)CO)c2n1 (stereo not given) | 7.8 | 0 | 8 | 7 | – | – | – | – | – | – | – | – | – | – | – | – | –
2 | Nc1nc(O)c2sc(=O)n([C@@H]3O[C@@H]4COP(=O)(O)O[C@H]4[C@H]3O)c2n1 | – | – | – | 7 | 7.1 days and 7.3 days | 42 | 17 | 50 | – | – | – | – | – | – | – | – | –
3 | CC(=O)OC[C@H]1O[C@@H](n2c(=O)sc3c(O)nc(N)nc32)[C@H](OC(C)=O)[C@@H]1OC(C)=O | – | – | – | – | – | – | – | – | 8 | 7.9 | 6.6 | 7 | 17 | 82 | 92 | 42 | –
4 | Nc1nc(O)c2sc(=O)n([C@H]3C[C@H](O)[C@@H](CO)O3)c2n1 | 7 | 83 | 50 | 6.8 | – | – | – | – | – | – | – | – | – | – | – | – | –
5 | Nc1nc(O)c2sc(=O)n(C3O[C@H](COP(=O)(O)O)[C@@H](O)[C@H]3O)c2n1 (stereo not given in full) | – | – | – | 6.5 | 8.1 days and 7.1 days | 25 | 50 | 67 | – | – | – | – | – | – | – | – | –
6 | Nc1nc(O)c2sc(=O)n(C3O[C@H](COS(N)(=O)=O)[C@@H](O)[C@H]3O)c2n1 (stereo not given in full) | 8.2 | 8 | 17 | 8 | – | – | – | – | – | – | – | – | – | – | – | – | –
7 | C[C@H]1OC(n2c(=O)sc3c(O)nc(N)nc32)[C@H](O)[C@@H]1O (stereo not given in full) | 8.4 | 0 | 8 | 8 | – | – | – | – | – | – | – | – | – | – | – | – | –
8 | Nc1nc(=O)c2sc(=O)n([C@@H]3O[C@H](CO)[C@@H](O)[C@H]3O)c2[nH]1 [ISATORIBINE] | >21 | 100 | 92 | – | 8.8 days and 7.2 days | 25 | 25 | 50 | 7 | 8 | 7.1 | >21 | 25 | 100 | 91 | 73 | 6.5 days and 10 days
